Reference: the NIST ThermoML archive (doi:10.1021/je800589e)
± gives the expanded uncertainty stated by the source.

Assay: xn = mol fraction of the nth substance listed
Conditions: Ring tensiometer

CCN1CCCC1=O [1-ethyl-2-pyrrolidinone] + O
surface tension liquid-gas [mN/m]
Conditions	293.15 K	298.15 K	303.15 K	313.15 K	323.15 K
x1 = 0.0002	65.16 ± 0.95	62.84	60.76 ± 0.9	58.13 ± 29	53.44 ± 0.8
x1 = 0.0005	59.61 ± 1.1	57.85 ± 1.3	55.95 ± 1.2	53.14 ± 1.2	50.14 ± 0.84
x1 = 0.001	56.3 ± 0.91	54.77 ± 0.95	53.23 ± 0.91	51 ± 0.83	49 ± 0.75
x1 = 0.01	48.62 ± 0.76	47.51 ± 0.74	46.59 ± 0.71	45.11 ± 0.68	43.84 ± 0.66
x1 = 0.02	44.12 ± 0.61	43.28 ± 0.59	42.53 ± 0.58	41.4 ± 0.57	40.2 ± 0.56
x1 = 0.05	43.48 ± 0.59	42.53 ± 0.58	41.79 ± 0.57	40.32 ± 0.56	39.26 ± 0.54
x1 = 0.1	42.11 ± 0.58	41.22 ± 0.57	40.42 ± 0.56	39.3 ± 0.55	38.32 ± 0.53
x1 = 0.2	40.9 ± 0.57	40.09 ± 0.56	39.35 ± 0.55	38.43 ± 0.54	37.22 ± 0.52
x1 = 0.3	40.28 ± 0.56	39.44 ± 0.55	38.52 ± 0.54	37.59 ± 0.53	36.48 ± 0.52
x1 = 0.4	39.63 ± 0.56	38.73 ± 0.55	37.87 ± 0.53	36.87 ± 0.52	35.72 ± 0.51
x1 = 0.5	39.25 ± 0.55	38.23 ± 0.54	37.31 ± 0.53	36.2 ± 0.52	35.26 ± 0.51
x1 = 0.6	38.6 ± 0.55	37.89 ± 0.54	36.94 ± 0.53	35.83 ± 0.51	34.86 ± 0.5
x1 = 0.7	38.04 ± 0.55	37.01 ± 0.53	36.39 ± 0.52	35.35 ± 0.51	34.72 ± 0.5
x1 = 0.8	37.71 ± 0.54	36.63 ± 0.53	35.9 ± 0.52	35.08 ± 0.51	34.35 ± 0.5
x1 = 0.9	37.09 ± 0.54	36.17 ± 0.53	35.63 ± 0.52	34.72 ± 0.51	34 ± 0.5
x1 = 1	36.48 ± 0.53	35.65 ± 0.52	35 ± 0.52	34.35 ± 0.51	33.61 ± 0.5

O=C1CCCN1 [2-pyrrolidinone] + O
surface tension liquid-gas [mN/m]
Conditions	293.15 K	298.15 K	303.15 K	313.15 K	323.15 K
x1 = 0.0002	60.4 ± 0.93	58.9 ± 27	57.3 ± 0.82	55.4 ± 7.2	53.2 ± 0.78
x1 = 0.0006	55.69 ± 1	54.6 ± 13	53.93 ± 1.2	52.2 ± 12	51.05 ± 0.78
x1 = 0.01	52.9 ± 0.72	51.68 ± 0.71	50.8 ± 0.7	49.8 ± 0.68	49.1 ± 0.67
x1 = 0.015	52.4 ± 0.7	51.19 ± 0.69	50.23 ± 0.68	49.3 ± 0.66	48.7 ± 0.66
x1 = 0.05	50.72 ± 0.69	49.58 ± 0.67	48.68 ± 0.66	47.77 ± 0.65	46.34 ± 0.63
x1 = 0.07	50.26 ± 0.68	49.28 ± 0.67	48.45 ± 0.66	47 ± 0.64	45.89 ± 0.63
x1 = 0.1	49.96 ± 0.68	48.91 ± 0.67	48 ± 0.65	46.49 ± 0.64	45.58 ± 0.63
x1 = 0.2	48.91 ± 0.68	48.08 ± 0.67	47.09 ± 0.65	45.89 ± 0.64	45.13 ± 0.63
x1 = 0.3	47.93 ± 0.68	47.17 ± 0.67	46.42 ± 0.66	45.43 ± 0.64	44.6 ± 0.63
x1 = 0.4	47.54 ± 0.68	46.87 ± 0.67	46.19 ± 0.66	45.28 ± 0.65	44.53 ± 0.64
x1 = 0.5	47.17 ± 0.69	46.72 ± 0.69	46.02 ± 0.68	45.21 ± 0.67	44.45 ± 0.66
x1 = 0.6	47.1 ± 0.71	46.64 ± 0.7	45.81 ± 0.69	44.91 ± 0.68	44.15 ± 0.67
x1 = 0.7	47.1 ± 0.72	46.42 ± 0.71	45.66 ± 0.7	45 ± 0.69	44.23 ± 0.68
x1 = 0.8	46.94 ± 0.74	46.42 ± 0.73	45.66 ± 0.72	44.68 ± 0.71	43.85 ± 0.7
x1 = 0.9	46.64 ± 0.76	46.11 ± 0.75	45.51 ± 0.74	44.53 ± 0.72	43.77 ± 0.71
x1 = 1	46.31 ± 0.77	45.81 ± 0.76	45.22 ± 0.75	44.12 ± 0.74	43.19 ± 0.72

CN1CCCC1=O [N-methylpyrrolidone] + O
surface tension liquid-gas [mN/m]
Conditions	293.15 K	298.15 K	303.15 K	313.15 K	323.15 K
x1 = 0.0002	63.96 ± 1	61.5	59.25 ± 1	57 ± 12	55 ± 0.83
x1 = 0.0004	58.14 ± 1.1	56.58 ± 4.5	55.68 ± 1.5	53.77 ± 5.7	52.41 ± 0.84
x1 = 0.0006	55.21 ± 1.1	54.22 ± 2.6	53.41 ± 2.1	52.05 ± 4.3	50.87 ± 0.82
x1 = 0.001	53.5 ± 0.74	52.86 ± 2.6	52.23 ± 0.88	51.05 ± 1.2	50.14 ± 0.71
x1 = 0.005	52.4 ± 0.71	51.68 ± 0.7	50.87 ± 0.7	49.69 ± 0.68	48.78 ± 0.67
x1 = 0.01	51.6 ± 0.69	50.78 ± 0.68	50 ± 0.67	48.87 ± 0.66	48.05 ± 0.65
x1 = 0.03	50.2 ± 0.68	49.41 ± 0.66	48.53 ± 0.65	47.17 ± 0.64	45.56 ± 0.62
x1 = 0.1	49 ± 0.66	48.29 ± 0.65	47.49 ± 0.64	46.34 ± 0.63	44.6 ± 0.61
x1 = 0.2	48.05 ± 0.65	47.49 ± 0.65	46.61 ± 0.64	45.5 ± 0.62	43.7 ± 0.6
x1 = 0.4	46.05 ± 0.63	45.42 ± 0.63	44.94 ± 0.62	44 ± 0.61	42.4 ± 0.59
x1 = 0.5	45.26 ± 0.63	44.62 ± 0.62	44 ± 0.61	43.12 ± 0.6	41.81 ± 0.59
x1 = 0.6	44.46 ± 0.62	43.82 ± 0.61	43.1 ± 0.6	42.3 ± 0.59	41.18 ± 0.58
x1 = 0.7	43.66 ± 0.61	43 ± 0.61	42.38 ± 0.6	41.5 ± 0.59	40.46 ± 0.57
x1 = 0.8	42.78 ± 0.61	42.14 ± 0.6	41.66 ± 0.59	40.78 ± 0.58	39.74 ± 0.57
x1 = 0.9	41.98 ± 0.6	41.34 ± 0.59	40.94 ± 0.59	40.14 ± 0.58	39.27 ± 0.57
x1 = 1	41.26 ± 0.59	40.8 ± 0.59	40.38 ± 0.58	39.64 ± 0.57	38.68 ± 0.56

O [water] + CCN1CCCC1=O
x2 = 0
Conditions	surface tension liquid-gas [mN/m]
293.15 K	72.65 ± 0.94
298.15 K	72.05 ± 0.93
303.15 K	71.21 ± 0.92
313.15 K	69.52 ± 0.9
323.15 K	67.92 ± 0.88

O [water] + CN1CCCC1=O
x2 = 0
Conditions	surface tension liquid-gas [mN/m]
293.15 K	72.65 ± 0.94
298.15 K	72.05 ± 0.93
303.15 K	71.21 ± 0.92
313.15 K	69.52 ± 0.9
323.15 K	67.92 ± 0.88

O [water] + O=C1CCCN1
x2 = 0
Conditions	surface tension liquid-gas [mN/m]
293.15 K	72.65 ± 0.94
298.15 K	72.05 ± 0.93
303.15 K	71.21 ± 0.92
313.15 K	69.52 ± 0.9
323.15 K	67.92 ± 0.88
